From publication PMC8528301 (PLoS ONE, 2021)
Values joined by “and” are separate entries in the source; they are usually repeats but may differ in a detail not shown here. Identical values can stand only once. Like-named read-outs stand apart in the source and are kept apart here.

Assay: Dasatinib single oral gavage plasma pharmacokinetics (NLME modeling)
Assay type: in vivo, mouse
Design: DV (dasatinib plasma concentration): unit: ng/mL
Settings: for CL/F: both sexes, po, read-out: Cl_pop (apparent oral clearance) (converted); for CL/F / concentration at 0.5 h / concentration at 1 h / concentration at 2 h / concentration at 8 h / concentration at 16 h / concentration at […] / concentration at 4 h / concentration at 24 h: C57BL/6, mouse, plasma, 10 mg/kg; for concentration at 0.5 h / concentration at 1 h / concentration at 2 h / concentration at 8 h / concentration at 16 h / concentration at […] / concentration at 4 h / concentration at 24 h: oral, read-out: DV (dasatinib plasma concentration)
Experimental: Dasatinib was dissolved in 80 mMol/L sodium citrate buffer pH 3.1 for a total dasatinib concentration of 1 mg/mL and a 10 mL/kg gavage volume. Mice were grouped by VD3 status and sex and studied at 8 and 10 weeks of age. […] Saphenous and submandibular bleeds of mice using a single-use Sarstedt Minivette POCT 50 μL K3 EDTA capillary device are humane methods for obtaining small volumes of blood over multiple time points, preferrable to retroorbital bleeds, and were approved for this study that required blood sampling at multiple time points (three) after dasatinib administration. Each mouse was sampled three times on two separate dasatinib dosing occasions. Blood was collected into the Minivette capillary device, dispensed into a microtube and vortexed to mix the anticoagulant. The tubes were then immediately centrifuged to plasma and stored on dry ice for the remainder of the study. At the end of the in vivo procedures, plasma samples were transferred from dry ice and placed at -80°C until analysis.
Total plasma dasatinib concentrations were assessed using a sensitive and specific liquid chromatography, tandem mass spectrometry (LC-MS/MS) assay. Dasatinib stock solutions were prepared in acetonitrile and used to spike matrix calibrators and quality controls. Protein precipitation was performed using a 1:4 ratio of plasma to 15 ng/mL erlotinib HCl (St. Jude Compound Management, S00004053, Inventory ID: SJCH0042996, Purity > 95%) in methanol as an internal standard. A 3μL aliquot of the extracted supernatant was injected onto a Shimadzu LC-20ADXR high performance liquid chromatography system via a LEAP CTC PAL autosampler. The LC separation was performed using a Phenomenex Kinetex 2.6 um EVO C18 (100A, 50 x 2.1 mm) maintained at 50°C with gradient elution at a flow rate of 0.5 mL/min. The binary mobile phase gradient began with a linear increase to 100% B in 4.0 minutes. The column was then rinsed for 2.0 minutes at 100% B and then equilibrated at the initial conditions for two minutes for a total run time of eight minutes.
Analyte and IS were detected with tandem mass spectrometry using a SCIEX API 5500 Q-TRAP in the positive ESI mode with monitoring of the following mass transitions: Dasatinib 488.20 -> 401.00, erlotinib HCl 394.20 -> 250.10.
The experimental bioanalytical runs were all found to be acceptable for the purpose of a singlicate non-GLP, preclinical PK assessment. A linear model (1/X^2 weighting) fit the calibrators across the 1.00 to 500 ng/mL range, with a correlation coefficient (R) of […]. The lower limit of quantification (LLOQ), defined as a peak area signal-to-noise ratio of 5 or greater verses a matric blank with IS, was 1.00 ng/mL.
§ To evaluate the plasma pharmacokinetics (PK) of dasatinib af t er two separate single oral gavage doses of solution, separated by a washout period, in normal C57BL/6 mice […]
vs 10wk) on the plasma PK of oral dasatinib us ing a nonlinear mixed effects (NLME) PK modeling […]
2. 1 In Vivo Pharmacokinetic (PK) Study
The total plasma PK of dasatinib in C57BL/6 mice (The Jackson Laboratory) was assessed after single oral gavages of 10 mg/kg of dasatinib free base equivalents. Dasatinib (St. Jude Compound […]
sodium citrate buffer pH 3.1 for a final dasatinib concentration of 1 mg/mL for a 10 mL/kg gavage volume.
Mice were grouped by Vitamin D dietary sufficiency status and sex, and studied at 8 and 10 weeks of age. Survival saphenous and facial vein bleeding of mice was conducted using IACUC-approved […]
was sampled 3 times on the 2 separate occasions of dasatinib dosing. […] The tubes were then immediately centrifuged to plasma, and stored on dry ice for […]

For Cc1nc(Nc2ncc(C(=O)Nc3c(C)cccc3Cl)s2)cc(N2CCN(CCO)CC2)n1 [dasatinib], the “DV (dasatinib plasma concentration)” value (GROUP:VD3 Suf, SEX:M, OCC 2, time 0.25) was 101.99 and 116.5, the “DV (dasatinib plasma concentration)” value (GROUP:VD3 Suf, SEX:M, OCC 2, time 0.5) was 207.19 and 212.25 and the “DV (dasatinib plasma concentration)” value (GROUP:VD3 Suf, SEX:M, OCC 2, time 2) was 297.27 and 320.75. The “DV (dasatinib plasma concentration)” value (GROUP:VD3 Suf, SEX:M, OCC 2, time 8) was 10.361 and 16.431, the “DV (dasatinib plasma concentration)” value (GROUP:VD3 Suf, SEX:M, OCC 2, time 24) was 3.3895 and 3.3706 and the CL/F (Base Model, 10 mg/kg oral gavage) was 112 mL/min/kg. The CL/F (Final Model) was 119 mL/min/kg, the concentration at 0.5 h (female, GROUP:VD3 Def, SEX:F, OCC 1, time 0.5) was 149 ng/mL and the concentration at 1 h (female, GROUP:VD3 Def, SEX:F, OCC 1, time 1) was 278 ng/mL. The concentration at 2 h (female, GROUP:VD3 Def, SEX:F, OCC 1, time 2) was 435 ng/mL, the concentration at 8 h (female, GROUP:VD3 Def, SEX:F, OCC 1, time 8) was 25.2 ng/mL and the concentration at 16 h (female, GROUP:VD3 Def, SEX:F, OCC 1, time 16) was 4.02 ng/mL. The concentration at […] (female, GROUP:VD3 Def, SEX:F, OCC 2, time 0.125) was 49 ng/mL, the concentration at […] (female, GROUP:VD3 Def, SEX:F, OCC 2, time 0.25) was 146 ng/mL and the concentration at 0.5 h (female, GROUP:VD3 Def, SEX:F, OCC 2, time 0.5) was 188 ng/mL. For the same compound, the concentration at 16 h (female, GROUP:VD3 Def, SEX:F, OCC 2, time 16) was 4.35 ng/mL, the concentration at […] (female, GROUP:VD3 Suf, SEX:F, OCC 1, time 0.25) was 167 ng/mL and the concentration at 0.5 h (female, GROUP:VD3 Suf, SEX:F, OCC 1, time 0.5) was 231 ng/mL. The concentration at 2 h (female, GROUP:VD3 Suf, SEX:F, OCC 1, time 2) was 405 ng/mL, the concentration at 4 h (female, GROUP:VD3 Suf, SEX:F, OCC 1, time 4) was 54.1 ng/mL and the concentration at 8 h (female, GROUP:VD3 Suf, SEX:F, OCC 1, time 8) was 22 ng/mL. The concentration at 16 h (female, GROUP:VD3 Suf, SEX:F, OCC 1, time 16) was 2.06 ng/mL, the concentration at 0.5 h (female, GROUP:VD3 Suf, SEX:F, OCC 2, time 0.5) was 137 ng/mL and the concentration at 1 h (female, GROUP:VD3 Suf, SEX:F, OCC 2, time 1) was greater than 500 ng/mL. The concentration at 2 h (female, GROUP:VD3 Suf, SEX:F, OCC 2, time 2) was 441 ng/mL, the concentration at 4 h (female, GROUP:VD3 Suf, SEX:F, OCC 2, time 4) was 64 ng/mL and the concentration at 16 h (female, GROUP:VD3 Suf, SEX:F, OCC 2, time 16) was 8.15 ng/mL. For the same compound, the concentration at […] (male, GROUP:VD3 Def, SEX:M, OCC 1, time 0.25) was 145 ng/mL, the concentration at 0.5 h (male, GROUP:VD3 Def, SEX:M, OCC 1, time 0.5) was 194 ng/mL and the concentration at 2 h (male, GROUP:VD3 Def, SEX:M, OCC 1, time 2) was greater than 500 ng/mL. For the same compound, the concentration at 4 h (male, GROUP:VD3 Def, SEX:M, OCC 1, time 4) was 87.8 ng/mL, the concentration at 8 h (male, GROUP:VD3 Def, SEX:M, OCC 1, time 8) was 16.2 ng/mL and the concentration at 24 h (male, GROUP:VD3 Def, SEX:M, OCC 1, time 24) was 6.39 ng/mL. It also gave a concentration at 0.5 h (male, GROUP:VD3 Def, SEX:M, OCC 2, time 0.5) of 178 ng/mL, a concentration at 1 h (male, GROUP:VD3 Def, SEX:M, OCC 2, time 1) greater than 500 ng/mL and a concentration at 2 h (male, GROUP:VD3 Def, SEX:M, OCC 2, time 2) of 287 ng/mL. For the same compound, the concentration at 4 h (male, GROUP:VD3 Def, SEX:M, OCC 2, time 4) was 83.2 ng/mL, the concentration at 8 h (male, GROUP:VD3 Def, SEX:M, OCC 2, time 8) was 15.5 ng/mL and the concentration at 16 h (male, GROUP:VD3 Def, SEX:M, OCC 2, time 16) was 11.1 ng/mL. The concentration at […] (male, GROUP:VD3 Suf, SEX:M, OCC 1, time 0.125) was 49.4 ng/mL, the concentration at […] (male, GROUP:VD3 Suf, SEX:M, OCC 1, time 0.25) was 110 ng/mL and the concentration at 2 h (male, GROUP:VD3 Suf, SEX:M, OCC 1, time 2) was 350 ng/mL. It also gave a concentration at 4 h (male, GROUP:VD3 Suf, SEX:M, OCC 1, time 4) of 147 ng/mL, a concentration at […] (male, GROUP:VD3 Suf, SEX:M, OCC 2, time 0.25) of 107 ng/mL and a concentration at 0.5 h (male, GROUP:VD3 Suf, SEX:M, OCC 2, time 0.5) of 316 ng/mL. For the same compound, the concentration at 1 h (male, GROUP:VD3 Suf, SEX:M, OCC 2, time 1) was greater than 500 ng/mL, the concentration at 2 h (male, GROUP:VD3 Suf, SEX:M, OCC 2, time 2) was 366 ng/mL and the concentration at 8 h (male, GROUP:VD3 Suf, SEX:M, OCC 2, time 8) was 20.4 ng/mL. It also gave a concentration at 24 h (male, GROUP:VD3 Suf, SEX:M, OCC 2, time 24) of 1.88 ng/mL.
